# Source: patent EP0085985A1, “Pyridazinone derivatives, pharmaceutically acceptable salts thereof and pharmaceutical compositions comprising said compounds” (MITSUBISHI KASEI CORPORATION, priority 1982, dated 1983)
# Assays:
# [1] = test system: papillary muscle preparation of the dog; assay: Isolated and cross-circulated papillary muscle preparation of the dog (contractility); details: Canis lupus familiaris, read-out: Developed tension (% Increase); for activation at 0.03 mg: Dose 30 µg i.a.; for activation at 0.1 mg: Dose 100 µg i.a.
# Method: (§1) By way of examples, pharmacological test procedures are described below. • (1) An isolated and cross-circulated papillary muscle preparation of the dog An isolated and cross-circulated papillary muscle preparation of the dog was prepared according to the method of Endo and Hashimoto [see American J. Physiol., 218, 1459-1463, (1970) U. S. A.]. A test compound dissolved in a solvent was applied by proximal intraarterial injection and its effect on contractility of the papillary muscle was determined. The results are shown in Table 1. • (2) Isolated left atrium of the guinea pig Male guinea pigs weighing 200 - 300 g were stunned by a blow on the head and the hearts were quickly excised and placed in a Petri dish containing oxygenated Krebs-Hensleit solution. The left atrium was excised. A fine cotton suture was attached to the left atrial appendage. The tissue was mounted in a 30 ml organ bath filled with Krebs-Hensleit solution at 37°C and oxygenated with 95% 02 - 5% C02 mixture. The cotton thread was then attached to a force- displacement transducer connected to a polygraph. A silver wire electrode connected to a stimulator was placed at the bottom of the preparaticn. Resting tension applied was 0.5 g. The preparation was driven electrically by a stimulator at a rate of 120/min. with suprathreshold rectangular pulses of 1 msec duration. The preparation was left to equilibrate for 1 hour. The test compounds dissolved in vehicle were added to the organ bath and the response was recorded. The results are shown in Table 1. • (3) Intact anesthetized dog preparation Mongrel dogs of either sex weighing 8 - 13 kg were anesthetized with sodium pentobarbital (30 mg/kg i.v.). A tracheal cannula was inserted and artificial respiration was carried out by means of a Harvard respiration. The left femoral vein was cannulated for intravenous bolus injection of the test compounds. The chest was opened at the left 4th intercostal space, the heart was exposed, and a _Walton-Brodie type strain gauge was sutured to the wall of the right ventricle to measure myocadial contractile force. A polyethylene cannula connected to a transducer was introduced into the left ventricle through the ventricular wall and left ventricular pressure was measured. Peak positive rate of rise of left ventricular pressure (dP/dt max) was obtained by an electric differentiator. The test compounds were dissolved in appropriate vehicle and intravenously administered.
# [2] = test system: left atrium of the guinea pig; assay: Isolated, electrically driven left atrium of the guinea pig (contractility)
# Method: as §1
# anesthetized dog = assay: Intact anesthetized dog preparation (in situ), cardiac contractility; type: in vivo; details: intravenous
# Method: as §1
# [3] = Acute toxicity, LD50 by the Litchfield-Wilcoxon method; details: in vivo
# Method: The values for LD50 were determined by the Litchfield-Wilcoxon method [J. T. Litchfield and F. Wilcoxon, J. Pharmacol. exp. Therap., 96, 99 (1949)].
structure (smiles),measurement,setting,value
"NC(=S)Nc1ccc(C2=NNC(=O)CC2)cc1 [Example 1, 4,5-dihydro-6-(4-thioureidophenyl)-3-(2H)-pyridazinone]",activation at 0.03 mg,[1],9.5%
same,activation at 0.1 mg,[1],21.2%
same,Developed tension (% Increase),[2]; Concentration 3 x 10^-5 g/ml,44.9 % Increase
same,Developed tension (% Increase),[2]; Concentration 10^-5 g/ml,24.6 % Increase
"CNC(=S)Nc1ccc(C2=NNC(=O)CC2)cc1 [Example 2, 4,5-dihydro-6-(4-N-methylthioureidophenyl)-3-(2H)-pyridazinone]",Contractile force of right ventricle (% Increase),anesthetized dog; Dose 0.03 mg/kg,65.1 % Increase
same,dP/dt max. (% Increase),anesthetized dog; Dose 0.03 mg/kg,28.4 % Increase
same,Contractile force of right ventricle (% Increase),anesthetized dog; Dose 0.1 mg/kg,74.8 % Increase
same,dP/dt max. (% Increase),anesthetized dog; Dose 0.1 mg/kg,95.4 % Increase
same,LD50,[3]; iv,> 100 mg/kg
same,LD50,[3]; po,> 2200 mg/kg
same,activation at 0.01 mg,[1]; Dose 10 µg i.a.,8.8%
same,activation at 0.03 mg,[1],47.4%
same,Developed tension (% Increase),[2]; Concentration 3 x 10^-6 g/ml,32.1 % Increase
same,Developed tension (% Increase),[2]; Concentration 10^-6 g/ml,28.9 % Increase
"CNC(=S)Nc1ccc(-c2ccc(=O)[nH]n2)cc1 [Example 3, 6-(4-N-methylthioureidophenyl)-3-(2H)-pyridazinone]",activation at 0.1 mg,[1],8.1%
same,activation at 0.3 mg,[1]; Dose 300 µg i.a.,15.9%
same,Developed tension (% Increase),[2]; Concentration 3 x 10^-5 g/ml,34.0 % Increase
same,Developed tension (% Increase),[2]; Concentration 10^-5 g/ml,28.3 % Increase
"CCNC(=S)Nc1ccc(C2=NNC(=O)CC2)cc1 [Example 4, 4,5-dihydro-6-(4-N-ethylthioureidophenyl)-3-(2H)-pyridazinone]",Contractile force of right ventricle (% Increase),anesthetized dog; Dose 0.3 mg/kg,75.8 % Increase
same,dP/dt max. (% Increase),anesthetized dog; Dose 0.3 mg/kg,49.9 % Increase
same,Contractile force of right ventricle (% Increase),anesthetized dog; Dose 1 mg/kg,116.2 % Increase
same,dP/dt max. (% Increase),anesthetized dog; Dose 1 mg/kg,79.5 % Increase
same,activation at 0.03 mg,[1],8.4%
same,activation at 0.1 mg,[1],11.5%
same,Developed tension (% Increase),[2]; Concentration 3 x 10^-5 g/ml,102 % Increase
same,Developed tension (% Increase),[2]; Concentration 10^-5 g/ml,85.6 % Increase
